From ChEMBL document CHEMBL1201862, “PubChem BioAssay data set” (2004)
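Five compound concentrations were applied to cells in 96-well plates for 48 hours; endpoints were derived by simple linear interpolation of the resulting dose-response curve. Here, GI50 denotes the concentration required for 50% inhibition of growth.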 The source made the active and inactive calls. Cut-off read from the data, not from the text of the source: active = GI50 up to about 1.1 µM and inactive = higher.

Tests used:
Test in all cases: NCI-60 cell line screen, 48 h
SW-620 = test system: SW-620
BT-549 = test system: BT-549
HT-29 = test system: HT-29
MOLT-4 = test system: MOLT-4
NCI-H226 = test system: NCI-H226
IGROV-1 = test system: IGROV-1
SN12C = test system: SN12C
A498 = test system: A498
SF-268 = test system: SF-268
M14 = test system: M14
TK-10 = test system: TK-10
CCRF-CEM = test system: CCRF-CEM
COLO 205 = test system: COLO 205
NCI-H460 = test system: NCI-H460
SK-MEL-5 = test system: SK-MEL-5
SF-539 = test system: SF-539
HOP-62 = test system: HOP-62
A549 = test system: A549
OVCAR-3 = test system: OVCAR-3
PC-3 = test system: PC-3

SMILES	GI50 (SW-620)	GI50 (BT-549)	GI50 (HT-29)	GI50 (MOLT-4)	GI50 (NCI-H226)	GI50 (IGROV-1)	GI50 (SN12C)	GI50 (A498)	GI50 (SF-268)	GI50 (M14)	GI50 (TK-10)	GI50 (CCRF-CEM)	GI50 (COLO 205)	GI50 (NCI-H460)	GI50 (SK-MEL-5)	GI50 (SF-539)	GI50 (HOP-62)	GI50 (A549)	GI50 (OVCAR-3)	GI50 (PC-3)
c1ncc(C23C4C5C6C4C2C6C53)[nH]1 (stereo not given)	> 100 µM (inactive)	> 100 µM (inactive)	> 100 µM (inactive)	> 100 µM (inactive)	> 100 µM (inactive)	> 100 µM (inactive)	> 100 µM (inactive)	> 100 µM (inactive)	> 100 µM (inactive)	> 100 µM (inactive)	> 100 µM (inactive)	> 100 µM (inactive)	> 100 µM (inactive)	> 100 µM (inactive)	> 100 µM (inactive)	> 100 µM (inactive)	> 100 µM (inactive)	> 100 µM (inactive)	> 100 µM (inactive)	> 100 µM (inactive)
Oc1cccc2c1[nH]c1c(C3=C[C@@]4(O)CC/C=C\CCCCN5CC[C@@H]3[C@]3(CC6/C=C\CCCCN6[C@H]34)C5)nccc12 (stereo not given in full)	1.43 µM (inactive)	1.81 µM (inactive)	0.796 µM (active)	0.64 µM (active)	2.21 µM (inactive)	1.02 µM (active)	0.891 µM (active)	2.24 µM (inactive)	1.58 µM (inactive)	0.966 µM (active)	1.9 µM (inactive)	0.973 µM (active)	0.787 µM (active)	0.65 µM (active)	1.59 µM (inactive)	1.71 µM (inactive)	0.764 µM (active)	2.04 µM (inactive)	0.893 µM (active)	0.738 µM (active)
CC(C(=O)n1ccnc1)N1c2ccccc2Sc2ccccc21 (stereo not given)	> 100 µM (inactive)	> 100 µM (inactive)	90.4 µM (inactive)	43 µM (inactive)	61.9 µM (inactive)	> 100 µM (inactive)	96.6 µM (inactive)	47.2 µM (inactive)	98.2 µM (inactive)	77.3 µM (inactive)	> 100 µM (inactive)	84.7 µM (inactive)	79.3 µM (inactive)	92 µM (inactive)	35 µM (inactive)	> 100 µM (inactive)	67.5 µM (inactive)	> 100 µM (inactive)	38.5 µM (inactive)	55.1 µM (inactive)
CS(=O)(=O)c1nc(-c2cc3c(c(S(C)(=O)=O)n2)CCC3)cc2c1CCC2	> 100 µM (inactive)	> 100 µM (inactive)	> 100 µM (inactive)	> 100 µM (inactive)	> 100 µM (inactive)	44.3 µM (inactive)	> 100 µM (inactive)	> 100 µM (inactive)	44.3 µM (inactive)	> 100 µM (inactive)	> 100 µM (inactive)	> 100 µM (inactive)	> 100 µM (inactive)	> 100 µM (inactive)	> 100 µM (inactive)	> 100 µM (inactive)	> 100 µM (inactive)	> 100 µM (inactive)	> 100 µM (inactive)	> 100 µM (inactive)
COc1ccc2oc(=O)cc(C)c2c1	> 100 µM (inactive)	> 100 µM (inactive)	> 100 µM (inactive)	> 100 µM (inactive)	> 100 µM (inactive)	> 100 µM (inactive)	> 100 µM (inactive)	> 100 µM (inactive)	> 100 µM (inactive)	> 100 µM (inactive)	> 100 µM (inactive)	> 100 µM (inactive)	> 100 µM (inactive)	> 100 µM (inactive)	> 100 µM (inactive)	> 100 µM (inactive)	> 100 µM (inactive)	> 100 µM (inactive)	> 100 µM (inactive)	> 100 µM (inactive)
CCOC(=O)CCC(NC(=O)c1ccc(OCc2nc3ccccc3n3cccc23)cc1)C(=O)OCC (stereo not given)	11.6 µM (inactive)	71.9 µM (inactive)	25.5 µM (inactive)	1.65 µM (inactive)	> 100 µM (inactive)	31.6 µM (inactive)	> 100 µM (inactive)	> 100 µM (inactive)	49.3 µM (inactive)	63.2 µM (inactive)	> 100 µM (inactive)	4.34 µM (inactive)	> 100 µM (inactive)	> 100 µM (inactive)	93.3 µM (inactive)	46.8 µM (inactive)	38 µM (inactive)	> 100 µM (inactive)	63.7 µM (inactive)	26.6 µM (inactive)
CSC(=S)CC(O)[C@@H]1CC2c3ccccc3C1c1ccccc12 (stereo not given in full)	4.81 µM (inactive)	13.2 µM (inactive)	4.33 µM (inactive)	1.49 µM (inactive)	9.06 µM (inactive)	11.8 µM (inactive)	18.7 µM (inactive)	20.7 µM (inactive)	15.4 µM (inactive)	12.7 µM (inactive)	15.2 µM (inactive)	1.95 µM (inactive)	18.1 µM (inactive)	14.6 µM (inactive)	13.4 µM (inactive)	17.9 µM (inactive)	15.7 µM (inactive)	17.1 µM (inactive)	8.51 µM (inactive)	5.83 µM (inactive)
CCc1c(CNc2ccc(C(=O)NC(CC(=O)O)C(=O)O)cc2)ccc2nc(N)nc(N)c12 (stereo not given)	< 0.0138 µM (active)	25.4 µM (inactive)	< 0.0178 µM (active)	< 0.0182 µM (active)	> 100 µM (inactive)	< 0.0177 µM (active)	< 0.0288 µM (active)	2.03 µM (inactive)	< 0.0198 µM (active)	< 0.01 µM (active)	15.3 µM (inactive)	< 0.0128 µM (active)	16.7 µM (inactive)	< 0.0158 µM (active)	< 0.0346 µM (active)	< 0.0292 µM (active)	0.267 µM (active)	< 0.0169 µM (active)	10.1 µM (inactive)	305 µM (inactive)
CC[C@@]1(O)C(=O)OCc2c1cc1n(c2=O)Cc2c-1nc1ccc(O)cc1c2CC[Si](C)(C)C	0.00438 µM (active)	0.0205 µM (active)	0.012 µM (active)	< 0.001 µM (active)	0.0194 µM (active)	0.0248 µM (active)	< 0.001 µM (active)	0.00383 µM (active)	< 0.001 µM (active)	< 0.001 µM (active)	0.0385 µM (active)	< 0.001 µM (active)	0.149 µM (active)	< 0.001 µM (active)	0.00116 µM (active)	< 0.001 µM (active)	< 0.001 µM (active)	0.00366 µM (active)	0.0247 µM (active)	0.141 µM (active)
COC1CC(C)(NC(=O)C(F)(F)F)C2OC(c3ccccc3)OCC2O1 (stereo not given)	> 100 µM (inactive)	> 100 µM (inactive)	47 µM (inactive)	47.3 µM (inactive)	> 100 µM (inactive)	> 100 µM (inactive)	> 100 µM (inactive)	> 100 µM (inactive)	> 100 µM (inactive)	> 100 µM (inactive)	> 100 µM (inactive)	> 100 µM (inactive)	> 100 µM (inactive)	> 100 µM (inactive)	> 100 µM (inactive)	> 100 µM (inactive)	> 100 µM (inactive)	> 100 µM (inactive)	> 100 µM (inactive)	> 100 µM (inactive)
